Results taken from ChEMBL document CHEMBL5058564, “EUbOPEN Chemogenomics Library 2 (Incucyte)” (2022).

Tests used:
Assay type in all cases: toxicity, cell-based
HEK-293T = experiment: Incucyte cell viability with HEK293T; conditions: human, 10 µM, compound concentration 10 uM
Fibroblast = experiment: Incucyte cell viability with human fibroblast; conditions: 10 µM, compound concentration 10 uM
U2OS = experiment: Incucyte cell viability with U2OS; conditions: human, 10 µM, compound concentration 10 uM
[1] = 0 h, replicate number 1, timepoint 0 hours
[2] = 0 h, replicate number 2, timepoint 0 hours
[3] = 6 h, replicate number 1, timepoint 6 hours
[4] = 18 h, replicate number 1, timepoint 18 hours
[5] = 24 h, replicate number 1, timepoint 24 hours
[6] = 12 h, replicate number 1, timepoint 12 hours
[7] = 6 h, replicate number 2, timepoint 6 hours
[8] = 18 h, replicate number 2, timepoint 18 hours
[9] = 24 h, replicate number 2, timepoint 24 hours
[10] = 12 h, replicate number 2, timepoint 12 hours
Note: unitless GR value; below 1 slowed growth and below 0 cell loss.

| Structure (SMILES) | Growth Rate (HEK-293T; [1]) | Growth Rate (HEK-293T; [2]) | Growth Rate (HEK-293T; [3]) | Growth Rate (HEK-293T; [4]) | Growth Rate (HEK-293T; [5]) | Growth Rate (Fibroblast; [2]) | Growth Rate (Fibroblast; [3]) | Growth Rate (Fibroblast; [6]) | Growth Rate (U2OS; [1]) | Growth Rate (U2OS; [2]) | Growth Rate (U2OS; [7]) | Growth Rate (U2OS; [6]) | Growth Rate (U2OS; [4]) | Growth Rate (U2OS; [8]) | Growth Rate (HEK-293T; [8]) | Growth Rate (HEK-293T; [9]) | Growth Rate (Fibroblast; [1]) | Growth Rate (Fibroblast; [4]) | Growth Rate (Fibroblast; [8]) | Growth Rate (U2OS; [9]) | other results |
| --- | --- | --- | --- | --- | --- | --- | --- | --- | --- | --- | --- | --- | --- | --- | --- | --- | --- | --- | --- | --- | --- |
| CCCC(CCC)C(=O)O [VALPROIC ACID] | 0.84 | 0.39 | 0.68 | 0.94 | 0.87 | 0.88 | 0.27 | 0.85 | 0.41 | -1 | 0.75 | 0.96 | 0.9 | 0.81 | – | – | – | – | – | – | – |
| CN[C@@H]1C[C@H]2O[C@@](C)([C@@H]1OC)n1c3ccccc3c3c4c(c5c6ccccc6n2c5c31)C(=O)NC4 [STAUROSPORINE] | -0.75 | -0.46 | – | 0.33 | 0.11 | -0.7 | – | 0.41 | – | – | – | – | 0.79 | 0.69 | 0.42 | 0.09 | 0.05 | 0 | 0.61 | 0.49 | Growth Rate (Fibroblast; [5]): -0.13; Growth Rate (Fibroblast; [9]): 0.35; Growth Rate (U2OS; [5]): 0.65 |
| O=C1[C@H](Cc2ccc(O)cc2)N2C(=O)CCN(C(=O)NCc3ccccc3)[C@H]2CN1Cc1cccc2ccccc12 | 0.98 | 0.37 | -0.42 | -0.29 | -0.24 | 0.82 | -0.77 | -0.6 | -0.65 | 0.18 | 0.87 | 0.14 | 0.11 | 0.51 | -0.22 | -0.21 | 0.78 | -0.71 | -0.07 | 0.57 | Growth Rate (HEK-293T; [7]): -0.2; Growth Rate (HEK-293T; [6]): -0.35; Growth Rate (HEK-293T; [10]): -0.29; Growth Rate (Fibroblast; [7]): 0.03; Growth Rate (Fibroblast; [10]): -0.16; Growth Rate (Fibroblast; [5]): -0.54; Growth Rate (Fibroblast; [9]): -0.02; Growth Rate (U2OS; [3]): 0.4; Growth Rate (U2OS; [10]): 0.6; Growth Rate (U2OS; [5]): 0.3 |
| COc1ccc2[nH]c(I)c(CCNC(C)=O)c2c1 [IODOMELATONIN] | – | 0.55 | 0.9 | – | – | – | 0.67 | 0.97 | – | -0.81 | 0.81 | – | 0.84 | 0.91 | – | – | – | – | 0.79 | 0.91 | Growth Rate (HEK-293T; [7]): 0.72; Growth Rate (Fibroblast; [7]): 0.7; Growth Rate (U2OS; [10]): 0.99 |
